# Reference: ChEMBL document CHEMBL1201862, “PubChem BioAssay data set” (2004)
# The source made the active and inactive calls.
# Assays:
# [1] = molecular target: G-protein coupled receptor 55 (Homo sapiens, UniProt Q9Y2T6); test: blockers of GPR55 signalling, imaged – imaging, image-based, counter-screen for GPR35 antagonist project, SAR follow-up (AID 2397); assay type: functional
# [2] = molecular target: T1, Tyrosine-protein phosphatase non-receptor type 22 (Homo sapiens, UniProt Q9Y2R2); test: SAR LYP1 Fluorescent Assay using OMFP substrate for In Vitro dose response studies - Set 3. [Related pubchem assays (depositor defined):AID1779, AID1784, AID2140, AID2686]; assay type: functional
# T1 sequence (Q9Y2R2 whole entry): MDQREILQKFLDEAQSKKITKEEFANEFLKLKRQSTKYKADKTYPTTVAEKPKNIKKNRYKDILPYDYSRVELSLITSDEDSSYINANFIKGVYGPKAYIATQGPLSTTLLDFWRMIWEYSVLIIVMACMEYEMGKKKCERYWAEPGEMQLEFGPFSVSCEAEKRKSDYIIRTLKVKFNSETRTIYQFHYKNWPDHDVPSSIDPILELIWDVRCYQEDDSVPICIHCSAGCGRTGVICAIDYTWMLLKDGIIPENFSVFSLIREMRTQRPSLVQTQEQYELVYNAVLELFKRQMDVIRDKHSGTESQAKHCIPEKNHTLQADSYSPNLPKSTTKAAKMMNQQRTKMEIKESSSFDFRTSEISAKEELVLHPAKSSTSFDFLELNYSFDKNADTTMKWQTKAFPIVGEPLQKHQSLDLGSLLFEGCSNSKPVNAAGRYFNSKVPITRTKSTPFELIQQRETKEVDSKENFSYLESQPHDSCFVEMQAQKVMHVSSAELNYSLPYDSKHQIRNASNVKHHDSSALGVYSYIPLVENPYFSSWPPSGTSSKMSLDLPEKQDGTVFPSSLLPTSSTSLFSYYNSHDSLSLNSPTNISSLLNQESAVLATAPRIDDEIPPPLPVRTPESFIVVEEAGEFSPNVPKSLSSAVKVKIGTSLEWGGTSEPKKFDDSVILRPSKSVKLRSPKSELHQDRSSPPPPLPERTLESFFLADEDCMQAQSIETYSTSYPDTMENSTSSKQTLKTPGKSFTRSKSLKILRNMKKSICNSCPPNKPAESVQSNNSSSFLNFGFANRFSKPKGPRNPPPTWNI
# [3] = molecular target: T2, Tyrosine-protein phosphatase non-receptor type 7 (Homo sapiens, UniProt P35236); test: inhibition of hematopoietic tyrosine phosphatase HePTP – biochemical, set 2, SAR follow-up (AID 449736); assay type: functional
# T2 sequence (P35236 whole entry): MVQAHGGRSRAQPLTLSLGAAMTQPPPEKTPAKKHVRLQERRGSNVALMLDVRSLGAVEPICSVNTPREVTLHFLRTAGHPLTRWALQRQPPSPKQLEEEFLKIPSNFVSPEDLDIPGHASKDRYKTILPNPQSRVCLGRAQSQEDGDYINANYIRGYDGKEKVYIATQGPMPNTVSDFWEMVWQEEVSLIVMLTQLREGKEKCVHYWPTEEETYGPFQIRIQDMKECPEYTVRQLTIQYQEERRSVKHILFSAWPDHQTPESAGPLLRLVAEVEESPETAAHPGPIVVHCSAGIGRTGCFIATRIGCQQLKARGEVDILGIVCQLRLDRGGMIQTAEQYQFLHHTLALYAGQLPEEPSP
# [4] = molecular target: T1, Tyrosine-protein phosphatase non-receptor type 22; test: inhibition of lymphoid tyrosine phosphatase LYP – biochemical, pCAP fluorogenic substrate, fluorescence, set 3, SAR follow-up (AID 449727); assay type: functional
# [5] = molecular target: T3, G-protein coupled receptor 35 (Homo sapiens, UniProt Q9HC97); test: SAR Analysis for the identification of Selective Antagonists of ERK1/2 Activity in GPR35-Overexpressing U2OS Cells. [Related pubchem assays: 2079, 2058 ]; assay type: functional, cell-based
# T3 sequence (Q9HC97 whole entry): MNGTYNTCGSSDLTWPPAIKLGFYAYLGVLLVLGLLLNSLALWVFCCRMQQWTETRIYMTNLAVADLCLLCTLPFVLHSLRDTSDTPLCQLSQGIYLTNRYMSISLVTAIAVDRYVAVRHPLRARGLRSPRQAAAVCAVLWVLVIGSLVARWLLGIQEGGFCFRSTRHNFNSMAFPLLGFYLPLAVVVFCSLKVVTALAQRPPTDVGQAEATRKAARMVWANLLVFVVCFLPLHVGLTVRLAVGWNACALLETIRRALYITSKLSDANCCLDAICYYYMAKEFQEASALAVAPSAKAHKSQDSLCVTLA
# [6] = molecular target: T3, G-protein coupled receptor 35; test: inhibition of zaprinast-stimulated GPR35 beta-arrestin translocation – imaging, U2OS, beta-arrestin-GFP, zaprinast agonist, primary screen (AID 2058); assay type: functional;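 note: antagonist potency meaning inhibition of agonist-induced arrestin redistribution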
# [7] = molecular target: T4, Tyrosine-protein phosphatase non-receptor type 12 (Homo sapiens, UniProt Q05209); test: SAR Selectivity Analysis of small molecule inhibitors of PEST using pCAP in a fluorescence assay. [Related pubchem assays (depositor defined):AID1779, AID1784, AID2135]; assay type: functional
# T4 sequence (Q05209 whole entry): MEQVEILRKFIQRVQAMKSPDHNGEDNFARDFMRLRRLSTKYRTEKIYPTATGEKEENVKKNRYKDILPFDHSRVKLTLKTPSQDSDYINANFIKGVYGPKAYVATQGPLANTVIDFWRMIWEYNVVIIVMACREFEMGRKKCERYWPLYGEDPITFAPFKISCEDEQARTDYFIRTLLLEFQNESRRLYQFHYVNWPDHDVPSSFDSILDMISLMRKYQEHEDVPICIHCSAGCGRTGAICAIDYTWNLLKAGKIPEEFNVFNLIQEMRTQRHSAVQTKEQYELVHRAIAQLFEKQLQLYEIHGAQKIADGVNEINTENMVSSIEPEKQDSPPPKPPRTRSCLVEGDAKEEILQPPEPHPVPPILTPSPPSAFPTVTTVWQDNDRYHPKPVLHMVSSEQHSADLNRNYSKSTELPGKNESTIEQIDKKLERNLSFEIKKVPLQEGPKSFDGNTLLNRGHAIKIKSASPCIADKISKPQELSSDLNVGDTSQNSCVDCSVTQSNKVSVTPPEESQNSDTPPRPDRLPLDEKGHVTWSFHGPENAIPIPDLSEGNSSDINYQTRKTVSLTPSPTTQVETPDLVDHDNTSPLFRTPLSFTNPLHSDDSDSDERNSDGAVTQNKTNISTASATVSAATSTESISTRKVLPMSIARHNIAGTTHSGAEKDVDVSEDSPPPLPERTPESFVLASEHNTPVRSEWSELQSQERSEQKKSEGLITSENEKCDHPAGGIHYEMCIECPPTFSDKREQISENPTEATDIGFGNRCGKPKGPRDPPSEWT
# [8] = molecular target: T5, Delta-type opioid receptor (Homo sapiens, UniProt P41143); test: DOR agonists, SAR follow-up, image-based (AID 2370); assay type: functional
# T5 sequence (P41143 whole entry): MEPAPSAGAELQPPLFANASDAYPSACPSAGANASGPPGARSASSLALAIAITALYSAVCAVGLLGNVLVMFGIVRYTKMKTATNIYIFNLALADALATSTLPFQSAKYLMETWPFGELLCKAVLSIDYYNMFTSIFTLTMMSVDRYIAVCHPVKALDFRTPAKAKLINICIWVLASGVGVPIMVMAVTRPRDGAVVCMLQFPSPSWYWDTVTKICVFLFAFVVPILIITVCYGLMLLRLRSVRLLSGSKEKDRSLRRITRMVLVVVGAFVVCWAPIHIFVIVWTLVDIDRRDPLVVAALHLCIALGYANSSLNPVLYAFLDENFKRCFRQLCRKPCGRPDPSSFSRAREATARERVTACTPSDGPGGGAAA
# [9] = molecular target: T5, Delta-type opioid receptor; test: HTS Image-Based Screen for Antagonists of the DOR Receptor. [Related pubchem assays (depositor defined):AID1777, AID1785, AID1786, AID2133]; assay type: functional
# [10] = molecular target: T6, Kappa-type opioid receptor (Homo sapiens, UniProt P41145); assay type: functional
# T6 sequence (P41145 whole entry): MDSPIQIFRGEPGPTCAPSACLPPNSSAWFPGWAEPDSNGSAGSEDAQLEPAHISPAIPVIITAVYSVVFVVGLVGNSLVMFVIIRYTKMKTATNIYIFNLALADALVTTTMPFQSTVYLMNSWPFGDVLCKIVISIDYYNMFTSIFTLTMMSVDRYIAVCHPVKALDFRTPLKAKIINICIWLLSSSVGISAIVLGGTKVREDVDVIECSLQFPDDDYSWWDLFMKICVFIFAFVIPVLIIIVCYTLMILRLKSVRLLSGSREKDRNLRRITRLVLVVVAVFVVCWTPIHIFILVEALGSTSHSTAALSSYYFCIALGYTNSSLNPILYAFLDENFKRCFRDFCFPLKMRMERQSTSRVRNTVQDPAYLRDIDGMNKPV
# [11] = molecular target: T6, Kappa-type opioid receptor; test: SAR analysis of small molecule agonists of the kappa opioid receptor via a luminescent beta-arrestin assay. [Related pubchem assays (depositor defined):AID1777, AID1786, AID1966, AID2133, AID2136, AID2348, AID2352, AID2357, AID2359, AID2370, AID2420, AID2478, AID2491, AID2492, AID2493, AID2497, AID2498, AID2500, AID449737, AID488822, AID488842]; assay type: functional
# [12] = molecular target: T6, Kappa-type opioid receptor; test: kappa opioid receptor activation potency – imaging, image-based, SAR follow-up (AID 2359); assay type: functional
# [13] = molecular target: T5, Delta-type opioid receptor; test: delta opioid receptor blockers – image-based, SAR follow-up (AID 2357); assay type: functional
# Mu-type opioid receptor [14] = molecular target: T7, Mu-type opioid receptor (Homo sapiens, UniProt P35372); test: mu opioid receptor blockers – image-based, SAR follow-up (AID 2420); assay type: functional;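 note: compounds added before stimulation of receptor with agonist DAMGO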
# T7 sequence (P35372 whole entry): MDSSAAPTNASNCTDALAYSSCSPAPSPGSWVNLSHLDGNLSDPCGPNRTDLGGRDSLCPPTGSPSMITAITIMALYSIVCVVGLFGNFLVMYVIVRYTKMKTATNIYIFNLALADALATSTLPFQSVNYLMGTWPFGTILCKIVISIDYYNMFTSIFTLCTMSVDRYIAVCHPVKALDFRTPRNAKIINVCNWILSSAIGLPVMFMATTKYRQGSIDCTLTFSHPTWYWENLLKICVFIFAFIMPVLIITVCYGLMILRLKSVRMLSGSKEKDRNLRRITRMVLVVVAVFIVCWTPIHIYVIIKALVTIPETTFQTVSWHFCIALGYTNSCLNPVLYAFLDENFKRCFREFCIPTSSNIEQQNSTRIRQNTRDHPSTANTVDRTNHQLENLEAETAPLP
# [15] = molecular target: T5, Delta-type opioid receptor; test: HTS Image-Based Screen for Agonists of the DOR Receptor. [Related pubchem assays (depositor defined):AID1777, AID1786, AID2133]; assay type: functional
# [16] = molecular target: T6, Kappa-type opioid receptor; test: kappa opioid receptor blockers, image-based, SAR follow-up (AID 2348); assay type: functional
# [17] = molecular target: T6, Kappa-type opioid receptor; assay type: functional; remark: listed apart in the source
# Mu-type opioid receptor [18] = molecular target: T7, Mu-type opioid receptor; test: mu opioid receptor activators, image-based, SAR follow-up (AID 2352); assay type: functional
# Mu-type opioid receptor [19] = molecular target: T7, Mu-type opioid receptor; test: HTS Image-Based Screen for Agonists of the MOR Receptor. [Related pubchem assays (depositor defined):AID1777, AID1785, AID1786, AID2133]; assay type: functional
# Chain of G-protein coupled receptor 55 (Q9Y2T6 whole entry): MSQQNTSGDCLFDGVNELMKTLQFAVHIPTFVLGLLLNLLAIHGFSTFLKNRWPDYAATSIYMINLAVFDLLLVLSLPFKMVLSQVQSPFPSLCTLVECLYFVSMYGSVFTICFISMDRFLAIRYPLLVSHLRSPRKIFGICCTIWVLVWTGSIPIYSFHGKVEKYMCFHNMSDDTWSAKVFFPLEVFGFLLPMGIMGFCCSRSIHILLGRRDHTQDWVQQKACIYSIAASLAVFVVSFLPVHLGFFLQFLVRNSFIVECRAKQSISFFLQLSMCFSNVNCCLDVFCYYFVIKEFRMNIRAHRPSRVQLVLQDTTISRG
IC50 [1],IC50 [2],IC50 [3],IC50 [4],IC50 [5],IC50 [6],IC50 [7],EC50 [8],IC50 [9],EC50 [10],EC50 [11],EC50 [12],IC50 [13],IC50 (Mu-type opioid receptor [14]),EC50 [15],IC50 [16],EC50 [17],EC50 (Mu-type opioid receptor [18]),EC50 (Mu-type opioid receptor [19]),Structure (SMILES)
> 32 µM (inactive),72.2 µM (active),1.89 µM (active),79.5 µM (active),3.29 µM (active),1.16 µM (active),15.8 µM (active),,,,,,,,,,,,,O=C(CCCN1C(=O)/C(=C\c2ccccc2)SC1=S)Nc1ccc(C(=O)O)cc1
,,,,,,,> 32 µM (inactive),> 32 µM (inactive),4.27 µM,8.1 µM (active),5.31 µM (active),> 32 µM (inactive),> 32 µM (inactive),> 32 µM (inactive),> 32 µM (inactive),3.16 µM,> 32 µM (inactive),> 32 µM (inactive),CCCCN(Cc1cc2ccccc2nc1O)C(=O)c1ccccn1
